From the supplement of paper PMC10307832

Key:
Test in all cases: relative viability (nuclei count vs DMSO), 5 days (fraction); higher = more cells survive
[1] = compound: C1=CC2=C(C=C(C(=C2N=C1)O)N=NC3=CC4=C(C=C3)C=C(C=C4)S(=O)(=O)O)S(=O)(=O)O + Nc1nc2[nH]cc(CCc3ccc(C(=O)N[C@@H](CCC(=O)O)C(=O)O)cc3)c2c(=O)[nH]1 [Pemetrexed] (partner 0.2 µM)
How it was run: (§1)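 One day after seeding in 1536-well plates, lung cancer cell lines were dosed by pin tool. Dosing was either single-drug or a fixed anchor-drug dose plus five library-drug doses (not always all listed) in √10 steps. After 5 days, nuclei were stained in one fix-and-stain step and counted on 4× images, and relative viability is the nuclei count of treated wells over that of vehicle wells, given as the median of duplicate plates.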

AT-7519 + Vorinostat = compound: O=C(NC1CCNCC1)c1n[nH]cc1NC(=O)c1c(Cl)cccc1Cl [AT-7519] + O=C(CCCCCCC(=O)Nc1ccccc1)NO [Vorinostat] (partner 1 µM)
How it was run: as §1

AT-7519 + Pictilisib = compound: O=C(NC1CCNCC1)c1n[nH]cc1NC(=O)c1c(Cl)cccc1Cl [AT-7519] + CS(=O)(=O)N1CCN(Cc2cc3nc(-c4cccc5[nH]ncc45)nc(N4CCOCC4)c3s2)CC1 [Pictilisib] (partner 1 µM)
How it was run: as §1

[2] = compound: C1=CC2=C(C=C(C(=C2N=C1)O)N=NC3=CC4=C(C=C3)C=C(C=C4)S(=O)(=O)O)S(=O)(=O)O + O=C(c1cc(Cc2n[nH]c(=O)c3ccccc23)ccc1F)N1CCN(C(=O)C2CC2)CC1 [Olaparib] (partner 8 µM)
How it was run: as §1

NCI-H2347
relative viability ([1]; first compound 0.08 µM): 0.44
relative viability ([1]; first compound 0.253 µM): 0.474
relative viability ([1]; first compound 0.8 µM): 0.444
relative viability ([1]; first compound 2.53 µM): 0.403
relative viability ([1]; first compound 8 µM): 0.343
relative viability (AT-7519 + Vorinostat; first compound 0.01 µM): 0.463
relative viability (AT-7519 + Vorinostat; first compound 0.03162 µM): 0.527
relative viability (AT-7519 + Vorinostat; first compound 0.3162 µM): 0.637
relative viability (AT-7519 + Vorinostat; first compound 1 µM): 0.379
relative viability (AT-7519 + Pictilisib; first compound 0.01 µM): 0.565
relative viability (AT-7519 + Pictilisib; first compound 0.03162 µM): 0.665
relative viability (AT-7519 + Pictilisib; first compound 0.3162 µM): 0.345
relative viability (AT-7519 + Pictilisib; first compound 1 µM): 0.286
relative viability ([2]; first compound 0.08 µM): 0.569
relative viability ([2]; first compound 0.253 µM): 0.538
relative viability ([2]; first compound 0.8 µM): 0.618
relative viability ([2]; first compound 2.53 µM): 0.569
relative viability ([2]; first compound 8 µM): 0.8

NCI-H2405
relative viability ([1]; first compound 0.08 µM): 1.1
relative viability ([1]; first compound 0.253 µM): 1.08
relative viability ([1]; first compound 0.8 µM): 0.976
relative viability ([1]; first compound 2.53 µM): 1.11
relative viability ([1]; first compound 8 µM): 0.982
relative viability (AT-7519 + Vorinostat; first compound 0.01 µM): 1.08
relative viability (AT-7519 + Vorinostat; first compound 0.03162 µM): 0.988
relative viability (AT-7519 + Vorinostat; first compound 0.3162 µM): 0.954
relative viability (AT-7519 + Vorinostat; first compound 1 µM): 0.852
relative viability (AT-7519 + Pictilisib; first compound 0.01 µM): 0.461
relative viability (AT-7519 + Pictilisib; first compound 0.03162 µM): 0.424
relative viability (AT-7519 + Pictilisib; first compound 0.3162 µM): 0.438
relative viability (AT-7519 + Pictilisib; first compound 1 µM): 0.293
relative viability ([2]; first compound 0.08 µM): 0.85
relative viability ([2]; first compound 0.253 µM): 0.888
relative viability ([2]; first compound 0.8 µM): 0.816
relative viability ([2]; first compound 2.53 µM): 0.898
relative viability ([2]; first compound 8 µM): 0.845

NCI-H3122
relative viability ([1]; first compound 0.08 µM): 0.194
relative viability ([1]; first compound 0.253 µM): 0.201
relative viability ([1]; first compound 0.8 µM): 0.202
relative viability ([1]; first compound 2.53 µM): 0.189
relative viability ([1]; first compound 8 µM): 0.182
relative viability (AT-7519 + Vorinostat; first compound 0.01 µM): 1.06
relative viability (AT-7519 + Vorinostat; first compound 0.03162 µM): 1.07
relative viability (AT-7519 + Vorinostat; first compound 0.3162 µM): 1.04
relative viability (AT-7519 + Vorinostat; first compound 1 µM): 0.757
relative viability (AT-7519 + Pictilisib; first compound 0.01 µM): 0.625
relative viability (AT-7519 + Pictilisib; first compound 0.03162 µM): 0.603
relative viability (AT-7519 + Pictilisib; first compound 0.3162 µM): 0.645
relative viability (AT-7519 + Pictilisib; first compound 1 µM): 0.102
relative viability ([2]; first compound 0.08 µM): 0.643
relative viability ([2]; first compound 0.253 µM): 0.623
relative viability ([2]; first compound 0.8 µM): 0.561
relative viability ([2]; first compound 2.53 µM): 0.644
relative viability ([2]; first compound 8 µM): 0.584

PC-3 [JPC-3]
relative viability ([1]; first compound 0.08 µM): 1.07
relative viability ([1]; first compound 0.253 µM): 1.03
relative viability ([1]; first compound 0.8 µM): 1.04
relative viability ([1]; first compound 2.53 µM): 1.16
relative viability ([1]; first compound 8 µM): 0.999
relative viability (AT-7519 + Vorinostat; first compound 0.01 µM): 0.667
relative viability (AT-7519 + Vorinostat; first compound 0.03162 µM): 0.773
relative viability (AT-7519 + Vorinostat; first compound 0.3162 µM): 0.884
relative viability (AT-7519 + Vorinostat; first compound 1 µM): 1.17
relative viability (AT-7519 + Pictilisib; first compound 0.01 µM): 0.779
relative viability (AT-7519 + Pictilisib; first compound 0.03162 µM): 0.751
relative viability (AT-7519 + Pictilisib; first compound 0.3162 µM): 0.688
relative viability (AT-7519 + Pictilisib; first compound 1 µM): 0.694
relative viability ([2]; first compound 0.08 µM): 1.31
relative viability ([2]; first compound 0.253 µM): 1.15
relative viability ([2]; first compound 0.8 µM): 1.17
relative viability ([2]; first compound 2.53 µM): 1.14
relative viability ([2]; first compound 8 µM): 1.09

PC-14
relative viability ([1]; first compound 0.08 µM): 0.127
relative viability ([1]; first compound 0.253 µM): 0.129
relative viability ([1]; first compound 0.8 µM): 0.145
relative viability ([1]; first compound 2.53 µM): 0.132
relative viability ([1]; first compound 8 µM): 0.11
relative viability (AT-7519 + Vorinostat; first compound 0.01 µM): 0.838
relative viability (AT-7519 + Vorinostat; first compound 0.03162 µM): 0.668
relative viability (AT-7519 + Vorinostat; first compound 0.3162 µM): 0.621
relative viability (AT-7519 + Vorinostat; first compound 1 µM): 0.388
relative viability (AT-7519 + Pictilisib; first compound 0.01 µM): 0.66
relative viability (AT-7519 + Pictilisib; first compound 0.03162 µM): 0.59
relative viability (AT-7519 + Pictilisib; first compound 0.3162 µM): 0.521
relative viability (AT-7519 + Pictilisib; first compound 1 µM): 0.258
relative viability ([2]; first compound 0.08 µM): 0.249
relative viability ([2]; first compound 0.253 µM): 0.275
relative viability ([2]; first compound 0.8 µM): 0.29
relative viability ([2]; first compound 2.53 µM): 0.272
relative viability ([2]; first compound 8 µM): 0.246

RERF-LC-KJ
relative viability ([1]; first compound 0.08 µM): 0.488
relative viability ([1]; first compound 0.253 µM): 0.483
relative viability ([1]; first compound 0.8 µM): 0.464
relative viability ([1]; first compound 2.53 µM): 0.463
relative viability ([1]; first compound 8 µM): 0.457
relative viability (AT-7519 + Vorinostat; first compound 0.01 µM): 0.776
relative viability (AT-7519 + Vorinostat; first compound 0.03162 µM): 0.666
relative viability (AT-7519 + Vorinostat; first compound 0.3162 µM): 0.631
relative viability (AT-7519 + Vorinostat; first compound 1 µM): 0.459
relative viability (AT-7519 + Pictilisib; first compound 0.01 µM): 0.514
relative viability (AT-7519 + Pictilisib; first compound 0.03162 µM): 0.452
relative viability (AT-7519 + Pictilisib; first compound 0.3162 µM): 0.594
relative viability (AT-7519 + Pictilisib; first compound 1 µM): 0.136
relative viability ([2]; first compound 0.08 µM): 0.889
relative viability ([2]; first compound 0.253 µM): 0.964
relative viability ([2]; first compound 0.8 µM): 0.987
relative viability ([2]; first compound 2.53 µM): 0.959
relative viability ([2]; first compound 8 µM): 1.02

SK-LU-1
relative viability ([1]; first compound 0.08 µM): 1.04
relative viability ([1]; first compound 0.253 µM): 0.937
relative viability ([1]; first compound 0.8 µM): 0.956
relative viability ([1]; first compound 2.53 µM): 0.954
relative viability ([1]; first compound 8 µM): 1.01
relative viability (AT-7519 + Vorinostat; first compound 0.01 µM): 0.805
relative viability (AT-7519 + Vorinostat; first compound 0.03162 µM): 0.725
relative viability (AT-7519 + Vorinostat; first compound 0.3162 µM): 0.693
relative viability (AT-7519 + Vorinostat; first compound 1 µM): 0.544
relative viability (AT-7519 + Pictilisib; first compound 0.01 µM): 0.591
relative viability (AT-7519 + Pictilisib; first compound 0.03162 µM): 0.54
relative viability (AT-7519 + Pictilisib; first compound 0.3162 µM): 0.5
relative viability (AT-7519 + Pictilisib; first compound 1 µM): 0.357
relative viability ([2]; first compound 0.08 µM): 0.603
relative viability ([2]; first compound 0.253 µM): 0.475
relative viability ([2]; first compound 0.8 µM): 0.399
relative viability ([2]; first compound 2.53 µM): 0.567
relative viability ([2]; first compound 8 µM): 0.512

SK-MES-1
relative viability ([1]; first compound 0.08 µM): 0.972
relative viability ([1]; first compound 0.253 µM): 0.953
relative viability ([1]; first compound 0.8 µM): 0.932
relative viability ([1]; first compound 2.53 µM): 0.942
relative viability ([1]; first compound 8 µM): 0.882
relative viability (AT-7519 + Vorinostat; first compound 0.01 µM): 1.2
relative viability (AT-7519 + Vorinostat; first compound 0.03162 µM): 1.1
relative viability (AT-7519 + Vorinostat; first compound 0.3162 µM): 1.05
relative viability (AT-7519 + Vorinostat; first compound 1 µM): 0.934
relative viability (AT-7519 + Pictilisib; first compound 0.01 µM): 0.457
relative viability (AT-7519 + Pictilisib; first compound 0.03162 µM): 0.272
relative viability (AT-7519 + Pictilisib; first compound 0.3162 µM): 0.328
relative viability (AT-7519 + Pictilisib; first compound 1 µM): 0.276
relative viability ([2]; first compound 0.08 µM): 0.793
relative viability ([2]; first compound 0.253 µM): 0.703
relative viability ([2]; first compound 0.8 µM): 0.609
relative viability ([2]; first compound 2.53 µM): 0.691
relative viability ([2]; first compound 8 µM): 0.707

SW 1573
relative viability ([1]; first compound 0.08 µM): 0.881
relative viability ([1]; first compound 0.253 µM): 0.817
relative viability ([1]; first compound 0.8 µM): 0.78
relative viability ([1]; first compound 2.53 µM): 0.838
relative viability ([1]; first compound 8 µM): 0.257
relative viability (AT-7519 + Vorinostat; first compound 0.01 µM): 0.812
relative viability (AT-7519 + Vorinostat; first compound 0.03162 µM): 0.696
relative viability (AT-7519 + Vorinostat; first compound 0.3162 µM): 0.615
relative viability (AT-7519 + Vorinostat; first compound 1 µM): 0.231
relative viability (AT-7519 + Pictilisib; first compound 0.01 µM): 0.576
relative viability (AT-7519 + Pictilisib; first compound 0.03162 µM): 0.463
relative viability (AT-7519 + Pictilisib; first compound 0.3162 µM): 0.386
relative viability (AT-7519 + Pictilisib; first compound 1 µM): 0.196
relative viability ([2]; first compound 0.08 µM): 0.574
relative viability ([2]; first compound 0.253 µM): 0.413
relative viability ([2]; first compound 0.8 µM): 0.523
relative viability ([2]; first compound 2.53 µM): 0.483
relative viability ([2]; first compound 8 µM): 0.29
